Reference: patent US20080026486A1, “Assay Methods, Materials and Preparations” (priority 2004, published 2008)

Assays:
[1] = test system: carbonic anhydrase II (CAII); assay: Detection of small molecules by QCRS on CAII surface; assay type: binding; conditions: for frequency shift on CAII surface: 12.5 μM
Protocol: The CAII surface was then used to capture 4-carboxybenzenesulfonamide (CBS […] in running PBSS buffer+0.25% MeOH).
The same CAII surface was used to detect 12.5 μM 4-carboxybenzenesulfonamide, and 12.5 μM 5-(dimethylamino)-1-naphthalenesulfonamide.

mouse anti-biotin IgG = assay: Detection of proteins by SPR: biotinylated BSA on Dextran T70-COOH-PDEA (428018) surfaces; assay type: binding; conditions: 10 μg/ml
Protocol: 4 flow cells having polymer treated surfaces were prepared. Flow cells (FC) 1, 2 & 3—were all activated by exposure for 7 min to […] (200 mM/50 mM). FC 3 only was then treated for 7 min with 50 μg/ml mouse anti-biotin IgG in 10 mM NaOAc buffer pH 4.5. FC 2 only was coupled to 50 μg/ml an irrelevant mouse monoclonal IgG in 10 mM NaOAc buffer pH 4.5 (7 minute exposure). FC 1, 2, 3—were capped by treatment for 5 min with ethanolamine (1 M, pH 8.5). FC 4 comprised untreated polymer.
Dextran T70-COOH-PDEA (428018) was deposited and mouse anti-biotin IgG was immobilised using the same procedure as in Example 7. The measurement of the immobilisation is shown in FIG. 12, which again is a graph of response (RU) against time (seconds).

| frequency shift on CAII surface [1] | frequency shift on capture by CAII surface ([1]; 25 μm in running PBSS buffer + […] MeOH) | binding to anti-biotin IgG surface (FC3) (mouse anti-biotin IgG; FC3) | binding to control surfaces (FC1, 2 and 4) (mouse anti-biotin IgG; capped polymer, irrelevant mouse IgG, unactivated polymer) | Compound |
| --- | --- | --- | --- | --- |
| 2.5 Hz | 6 Hz |  |  | NS(=O)(=O)c1ccc(C(=O)O)cc1 [4-carboxybenzenesulfonamide] |
| 1.2 Hz |  |  |  | CN(C)c1cccc2c(S(N)(=O)=O)cccc12 [5-(dimethylamino)-1-naphthalenesulfonamide] |
|  |  | Specific binding occurs | minimal non-specific binding | biotinylated BSA: biotinylated bovine serum albumin used as analyte |
